Laboratory results published in patent publication US11896580B2, “Composition for improving milk quality and preparation method and application thereof” (CHINA AGRICULTURAL UNIVERSITY, priority 2020, dated 2024).

Columns and labels:
[1] = test system: cows; assay: Blood indicators of cows after injection of melatonin; settings: in vivo
[2] = test system: Holstein cows having somatic cell counts of 300,000/mL to 1,000,000/mL; assay: Analysis of the DHI indicators of milk after subcutaneous injection of melatonin; type: in vivo
Source text: (1) According to the monthly DHI test reports from the dairy farm, Holstein cows having somatic cell counts of 300,000/mL to 1,000,000/mL are selected to be fed separately, and are ensured to have no significant difference in physical health. Season groups: spring n=90, summer n=74, autumn n=83, winter n=81 (number of cows). Age groups: 2-year-old n=23; 3-year-old n=80; 4-year-old n=66; 5-year-old n=56; 6-year-old n=27; 7-year-old n=19 (number of cows). Lactation period groups: peak-lactation n=15, mid-lactation n=38, end-lactation n=59 (number of cows) (initial-lactation: days 1-15 after calving; peak-lactation: days 16-100 after calving; mid-lactation: days 101-200 after calving; end-lactation: day 201 after calving to weaning).
(2) The dairy cows having high somatic cell counts are injected with 2 mL melatonin solution every day for 4 consecutive days in each month. 15 days after the injection, fresh milk was collected and stored in 50 mL centrifuge tubes, and was tested for the changes in somatic cell counts. The cows were fed with total mixed ration, and were fed three times at 06:00, 12:00, and 18:00 respectively. Then, the cows entered the sports ground to move freely, drink water and rest.
(3) The sampling bottles were numbered and added with 2-3 drops of potassium dichromate saturated solution, and were used for collecting the milk samples from the milk by the first milking of the cows. The milk sample for each cow was in a volume of 40 mL and placed in a centrifuge tube. After sampling, all the remaining milk was drained from the tubes which were cleaned to avoid contamination between the samples. The samples were stored at 2-7° C. The instrument for measuring the DHI indicators is Milkscan FT+&FC automatic milk compositional analyzer and somatic cell counter. The measurement was carried out in the National Laboratory for Preparation of Standard Materials of DHI.

[3] = 2-year-old cows, after injection
[4] = 3-year-old cows, after injection
[5] = 4-year-old cows, after injection
[6] = 5-year-old cows, after injection
[7] = 6-year-old cows, after injection
[8] = 7-year-old cows, after injection
[9] = peak-lactation, after injection

In the case of COc1ccc2[nH]cc(CCNC(C)=O)c2c1 [melatonin], the “concentration of alanine aminotransferase” value [1] is reported as “increase”, the concentration of albumin [1] is reported as “increase” and the concentration of cortisol [1] is reported as “reduce”. For the same compound, the “concentration of serum lactate dehydrogenase” value [1] was “increase”, the number of lymphocytes [1] was “reduce” and the number of neutrophils [1] was “reduce”. The “number of white blood cells” value [1] was “reduce”, the dry matter contents [2, 3] was 13.87%±0.27 and the fat contents [2, 3] was 4.54%±0.26. For the same compound, the lactose contents [2, 3] was 5.19%±0.03, the milk production [2, 3] was 32.12 ± 1.63 kg/day and the protein contents [2, 3] was 3.41%±0.09. The somatic cell scores [2, 3] was 3.87±0.33, the urea nitrogen contents [2, 3] was 13.90 ± 0.80 mg/dL and the dry matter contents [2, 4] was 13.57%±0.13. For the same compound, the fat contents [2, 4] was 4.36%±0.11, the lactose contents [2, 4] was 5.03%±0.02 and the milk production [2, 4] was 32.11 ± 0.96 kg/day. For the same compound, the protein contents [2, 4] was 3.44%±0.04, the somatic cell scores [2, 4] was 4.31±0.18 and the urea nitrogen contents [2, 4] was 13.58 ± 0.46 mg/dL. For the same compound, the dry matter contents [2, 5] was 14.18%±0.15, the fat contents [2, 5] was 4.69%±0.13 and the lactose contents [2, 5] was 4.94%±0.03. For the same compound, the milk production [2, 5] was 30.03 ± 1.22 kg/day, the protein contents [2, 5] was 3.66%±0.06 and the somatic cell scores [2, 5] was 4.68±0.18. The urea nitrogen contents [2, 5] was 13.32 ± 0.49 mg/dL, the dry matter contents [2, 6] was 13.87%±0.18 and the fat contents [2, 6] was 4.62%±0.16. For the same compound, the lactose contents [2, 6] was 4.86%±0.05, the milk production [2, 6] was 33.56 ± 1.52 kg/day and the protein contents [2, 6] was 3.55%±0.07. The somatic cell scores [2, 6] was 4.04±0.19, the urea nitrogen contents [2, 6] was 14.09 ± 0.59 mg/dL and the dry matter contents [2, 7] was 14.13%±0.24. For the same compound, the fat contents [2, 7] was 5.27%±0.21, the lactose contents [2, 7] was 4.91%±0.06 and the milk production [2, 7] was 35.19 ± 2.67 kg/day. The protein contents [2, 7] was 3.38%±0.07, the somatic cell scores [2, 7] was 5.19±0.27 and the urea nitrogen contents [2, 7] was 15.79 ± 0.94 mg/dL. The dry matter contents [2, 8] was 13.48%±0.32, the fat contents [2, 8] was 4.66%±0.37 and the lactose contents [2, 8] was 4.93%±0.06. The milk production [2, 8] was 30.34 ± 2.08 kg/day, the protein contents [2, 8] was 3.32%±0.07 and the somatic cell scores [2, 8] was 5.03±0.29. The urea nitrogen contents [2, 8] was 15.11 ± 1.34 mg/dL, the dry matter contents ([2]; autumn, after injection) was 14.10%±0.14 and the fat contents ([2]; autumn, after injection) was 4.68%±0.13. For the same compound, the lactose contents ([2]; autumn, after injection) was 5.07%±0.04, the milk production ([2]; autumn, after injection) was 32.07 ± 1.05 kg/day and the protein contents ([2]; autumn, after injection) was 3.64%±0.05. The urea nitrogen contents ([2]; autumn, after injection) was 11.72 ± 0.36 mg/dL, the somatic cell scores ([2]; autumn, after injection (second value of before VS after)) was 4.55±0.16 and the dry matter contents ([2]; end-lactation, after injection) was 13.47%±0.13. The fat contents ([2]; end-lactation, after injection) was 4.18%±0.12, the milk production ([2]; end-lactation, after injection) was 31.25 ± 1.29 kg/day and the protein contents ([2]; end-lactation, after injection) was 3.40%±0.04. For the same compound, the somatic cell scores ([2]; end-lactation, after injection) was 1.99±0.15, the urea nitrogen contents ([2]; end-lactation, after injection) was 12.04 ± 0.38 mg/dL and the dry matter contents ([2]; mid-lactation, after injection) was 13.56%±0.14. For the same compound, the fat contents ([2]; mid-lactation, after injection) was 4.22%±0.11, the lactose contents ([2]; mid-lactation, after injection) was 5.19%±0.02 and the milk production ([2]; mid-lactation, after injection) was 39.08 ± 1.79 kg/day. For the same compound, the protein contents ([2]; mid-lactation, after injection) was 3.45%±0.05, the somatic cell scores ([2]; mid-lactation, after injection) was 2.00±0.17 and the urea nitrogen contents ([2]; mid-lactation, after injection) was 12.11 ± 0.54 mg/dL. The dry matter contents [2, 9] was 13.17%±0.29, the fat contents [2, 9] was 3.87%±0.26 and the milk production [2, 9] was 38.80 ± 2.06 kg/day. For the same compound, the protein contents [2, 9] was 3.35%±0.06, the somatic cell scores [2, 9] was 2.04±0.24 and the urea nitrogen contents [2, 9] was 11.12 ± 0.64 mg/dL. The dry matter contents ([2]; spring, after injection) was 13.92%±0.15, the fat contents ([2]; spring, after injection) was 4.78%±0.14 and the lactose contents ([2]; spring, after injection) was 4.94%±0.02. The milk production ([2]; spring, after injection) was 32.11 ± 1.15 kg/day, the protein contents ([2]; spring, after injection) was 3.49%±0.04 and the urea nitrogen contents ([2]; spring, after injection) was 14.35 ± 0.45 mg/dL. For the same compound, the somatic cell scores ([2]; spring, after injection (second value of before VS after), 2 mL/day s.c., 4 days, milk 15 days after) was 4.89±0.15, the dry matter contents ([2]; summer, after injection) was 13.42%±0.13 and the fat contents ([2]; summer, after injection) was 4.20%±0.12. The lactose contents ([2]; summer, after injection) was 5.06%±0.02, the milk production ([2]; summer, after injection) was 32.69 ± 1.00 kg/day and the protein contents ([2]; summer, after injection) was 3.45%±0.04. The urea nitrogen contents ([2]; summer, after injection) was 14.19 ± 0.50 mg/dL, the somatic cell scores ([2]; summer, after injection (second value of before VS after)) was 4.09±0.20 and the “somatic cell score reduced by” value ([2]; whole year, n=328, p<0.01) was 63.54%. For the same compound, the “fat content of milk reduced by” value ([2]; whole year, n=328, p<0.05) was 11.31%, the “lactose content increased to” value ([2]; whole year, n=328, p<0.05) was 4.74% and the “protein content of milk increased by” value ([2]; whole year, n=328, p<0.05) was 3.79%. The “urea nitrogen content of milk reduced by” value ([2]; whole year, n=328, p<0.05) was 11.08%, the dry matter contents ([2]; winter, after injection) was 13.65%±0.12 and the fat contents ([2]; winter, after injection) was 4.75%±0.11. For the same compound, the lactose contents ([2]; winter, after injection) was 4.84%±0.04, the milk production ([2]; winter, after injection) was 31.82 ± 1.17 kg/day and the protein contents ([2]; winter, after injection) was 3.43%±0.05. For the same compound, the urea nitrogen contents ([2]; winter, after injection) was 15.94 ± 0.51 mg/dL and the somatic cell scores ([2]; winter, after injection (second value of before VS after)) was 4.34±0.17.
